Like-named read-outs stand apart in the source and are kept apart here.

Data on seven compounds can be found in patent US6444671B1, “Cyclic AMP-specific phosphodiesterase inhibitors” (ICOS Corporation, priority 1999, dated 2002).

Data set [1] relates to recombinant human PDE4. Conditions: reported value, background section; read-out: IC50 with respect to inhibiting recombinant human PDE4; cited from earlier work.
The subject of data set [2] is T1, recombinant human PDE4.
T1 construct: PDE4 IC50 (nM); other: recombinant human PDE4
Description: PDE4 inhibition, recombinant human PDE4, [32P]cAMP charcoal separation assay. The format is biochemical. How it is done:
The compounds of structural formula (II) were tested for an ability to inhibit PDE4. The ability of a compound to inhibit PDE4 activity is related to the IC50 value for the compound, i.e., the concentration of inhibitor required for 50% inhibition of enzyme activity. The IC50 value for compounds of structural formula (II) were determined using recombinant human PDE4.
The production of recombinant human PDEs and the IC50 determinations can be accomplished by well-known methods in the art. Exemplary methods are described as follows:
Recombinant production of human PDE1B, PDE2, PDE4A, PDE4B, PDE4C, PDE4D, PDE5, and PDE7 was carried out similarly to that described in Example 7 of U.S. Pat. No. 5,702,936, incorporated herein by reference, except that the yeast transformation vector employed, which is derived from the basic ADH2 plasmid described in Price et al., Methods in Enzymology, 135, pp. 308-318 (1990), incorporated. yeast ADH2 promoter and terminator sequences and the Saccharomyces cerevisiae host was the protease-deficient strain BJ2-54 deposited on Aug. 31, 1998 with the American Type Culture Collection, Manassas, Va., under accession number ATCC 74465. Transformed host cells were grown in 2×SC-leu medium, pH 6.2, with trace metals, and vitamins. After 24 hours, YEP medium-containing glycerol was added to a final concentration of 2×YET/3% glycerol. Approximately 24 hr later, cells were harvested, washed, and stored at −70° C.
Phosphodiesterase activity of the preparations was determined as follows. PDE assays utilizing a charcoal separation technique were performed essentially as described in Loughney et al. (1996). In this assay, PDE activity converts [32P]cAMP or [32P]cGMP to the corresponding [32P]5′-AMP or [32P]5′-GMP in proportion to the amount of PDE activity present. The [32P]5′-AMP or [32P]5′-GMP then was quantitatively converted to free [32P]phosphate and unlabeled adenosine or guanosine by the action of snake venom 5′-nucleotidase. […] The assay was performed at 30° C. in a 100 μL reaction mixture containing (final concentrations) 40 mM Tris HCl (pH 8.0), 1 μM ZnSO4, 5 mM MgCl2, and 0.1 mg/mL bovine serum albumin (BSA) Alternatively, in assays assessing PDE1-specific activity, incubation mixtures further incorporated the use of 0.1 mM CaChe and 10 μg/mL calmodulin. PDE enzyme was present in quantities that yield<30% total hydrolysis of substrate (linear assay conditions). The assay was initiated by addition of substrate ([…] [32P]cAMP or cGMP), and the mixture was incubated for 12 minutes. […] After centrifugation (750×g for 3 minutes) to sediment the charcoal, a sample of the supernatant was taken for radioactivity determination in a scintillation counter and the PDE activity was calculated.

For data set [3] the following is noted: in vivo; cited from earlier work.

Broadly, the IC50 is the concentration that gives 50% inhibition. On to `COc1ccc(C2CNC(=O)C2)cc1OC1CCCC1` (stereo not shown) [Rolipram, rolipram], for which, in the data set with recombinant human PDE4 [1], the half-maximal inhibitory concentration (IC50) was around 200 nM.

Take `CCc1nn(C2CCCC2)c2cc([C@@H]3CN(Cc4ccccc4)C[C@@]3(C)CO)ccc12` [Example 3, [(3S,4S)-4-(1-Cyclopentyl-3-ethyl(1H-indazol-6-yl))-3-methyl-1-benzylpyrrolidin-3-yl]methan-1-ol]: the IC50 with recombinant human PDE4 [2] was 6.1 nM.

`CCc1nn(C2CCCC2)c2cc([C@@H]3CN(Cc4ccccc4)C[C@@]3(C)C(C)O)ccc12` (stereo partly drawn) [Example 2, (1R)-1-[(3S,4S)-4-(1-Cyclopentyl-3-ethyl(1H-indazol-6-yl))-3-methyl-1-benzylpyrrolidin-3-yl]ethan-1-ol]: in the data set on recombinant human PDE4 [2], the IC50 amounted to 87.6 nM.

As for `CCc1nn(C2CCCC2)c2cc([C@@H]3CN(C(=O)OC)C[C@@]3(C)CO)ccc12` [Example 4, Methyl (3S,4S)-4-(1-cyclopentyl-3-ethyl(1H-indazol-6-yl))-3-(hydroxymethyl)-3-methyl Pyrrolidine Carboxylate], in the data set on recombinant human PDE4 [2], the IC50 worked out at 79.3 nM.

As to `COC(=O)N1CC(c2ccc(OC)c(OC3CCCC3)c2)C(C)(C(C)=O)C1` (stereo not shown) [formula (I)], the IC50 in the data set with recombinant human PDE4 [1] is around 2 nM.

Consider R-rolipram, for which the “Emetic potential relative to the (+)-enantiomer (S-rolipram)” value in data set [3] is “about ten-fold more emetic”.

On to `CCc1nn(C2CCCC2)c2cc([C@@H]3CN(Cc4ccccc4)C[C@@]3(C)C(C)O)ccc12` (stereo partly drawn) [Example 1, (1S)-1-[(3S,4S)-4-(1-Cyclopentyl-3-ethyl(1H-indazol-6-yl))-3-methyl-1-benzylpyrrolidin-3-yl]ethan-1-ol], for which the IC50 in the data set with recombinant human PDE4 [2] worked out at 316 nM.
